Test results reported in publication PMC8808171, “Nonselective TRPC channel inhibition and suppression of aminoglycoside-induced premature termination codon readthrough by the small molecule AC1903” (The Journal of Biological Chemistry, 2022).

What was measured:
[1] = target: T1, TRPC5–C1 (Homo sapiens, UniProt P48995+Q9UL62); test: [Ca2+]i recordings (Fura-2), concatemeric TRPC5–C1 in HEK T-REx cells; format: cell-based; details: activator EA (30 nM)
T1 construct: expressed in transfected cells; host or cells: HEK T-REx (tetracycline-induced)
Procedure: Based on the findings described above, we wondered whether AC1903—which is typically used as a TRPC5 inhibitor at concentrations of 30–100 μM in cellular assays ([29], [56])—might have limited selectivity for TRPC5 channels and whether its effect on intracellular G418 levels and PTC readthrough might be the consequence of inhibition of other or multiple targets. All well-characterized TRPC channel inhibitors reported to date modulate multiple TRP(C) channels ([34], [35], [36]). […] Because limited data for the selectivity of AC1903 are available in the public domain, we decided to profile AC1903 against a selection of calcium-permeable cation channels by intracellular calcium ([Ca^2+]i) recordings using well-characterized cell lines and TRP channel activators ([46], [57], [58]), and the Ca^2+ indicator Fura-2. In these assays, cells (HEK 293, HEK T-REx, or CHO) overexpressing the relevant ion channel protein and loaded with Fura-2 AM (a cell-permeable precursor of Fura-2) were preincubated with various concentrations of AC1903 or vehicle (DMSO) for 30 min. Then, changes in ratiometric fluorescence (from background) were recorded upon addition of the respective ion channel activator.
HEK T-REx cells expressing tetracycline-inducible TRPC4, TRPC5, TRPC5–C1,TRPC4–C1, and hPiezo1 have been described previously ([46], [57], [59], [78]). […]

[2] = system: TRPC4 channels; set-up: method as in PubChem AID 434942 – SID 865888; details: ref PubChem AID 434942 – SID 865888; cited from earlier work

T1 sequence (Q9UL62+P48995 fused): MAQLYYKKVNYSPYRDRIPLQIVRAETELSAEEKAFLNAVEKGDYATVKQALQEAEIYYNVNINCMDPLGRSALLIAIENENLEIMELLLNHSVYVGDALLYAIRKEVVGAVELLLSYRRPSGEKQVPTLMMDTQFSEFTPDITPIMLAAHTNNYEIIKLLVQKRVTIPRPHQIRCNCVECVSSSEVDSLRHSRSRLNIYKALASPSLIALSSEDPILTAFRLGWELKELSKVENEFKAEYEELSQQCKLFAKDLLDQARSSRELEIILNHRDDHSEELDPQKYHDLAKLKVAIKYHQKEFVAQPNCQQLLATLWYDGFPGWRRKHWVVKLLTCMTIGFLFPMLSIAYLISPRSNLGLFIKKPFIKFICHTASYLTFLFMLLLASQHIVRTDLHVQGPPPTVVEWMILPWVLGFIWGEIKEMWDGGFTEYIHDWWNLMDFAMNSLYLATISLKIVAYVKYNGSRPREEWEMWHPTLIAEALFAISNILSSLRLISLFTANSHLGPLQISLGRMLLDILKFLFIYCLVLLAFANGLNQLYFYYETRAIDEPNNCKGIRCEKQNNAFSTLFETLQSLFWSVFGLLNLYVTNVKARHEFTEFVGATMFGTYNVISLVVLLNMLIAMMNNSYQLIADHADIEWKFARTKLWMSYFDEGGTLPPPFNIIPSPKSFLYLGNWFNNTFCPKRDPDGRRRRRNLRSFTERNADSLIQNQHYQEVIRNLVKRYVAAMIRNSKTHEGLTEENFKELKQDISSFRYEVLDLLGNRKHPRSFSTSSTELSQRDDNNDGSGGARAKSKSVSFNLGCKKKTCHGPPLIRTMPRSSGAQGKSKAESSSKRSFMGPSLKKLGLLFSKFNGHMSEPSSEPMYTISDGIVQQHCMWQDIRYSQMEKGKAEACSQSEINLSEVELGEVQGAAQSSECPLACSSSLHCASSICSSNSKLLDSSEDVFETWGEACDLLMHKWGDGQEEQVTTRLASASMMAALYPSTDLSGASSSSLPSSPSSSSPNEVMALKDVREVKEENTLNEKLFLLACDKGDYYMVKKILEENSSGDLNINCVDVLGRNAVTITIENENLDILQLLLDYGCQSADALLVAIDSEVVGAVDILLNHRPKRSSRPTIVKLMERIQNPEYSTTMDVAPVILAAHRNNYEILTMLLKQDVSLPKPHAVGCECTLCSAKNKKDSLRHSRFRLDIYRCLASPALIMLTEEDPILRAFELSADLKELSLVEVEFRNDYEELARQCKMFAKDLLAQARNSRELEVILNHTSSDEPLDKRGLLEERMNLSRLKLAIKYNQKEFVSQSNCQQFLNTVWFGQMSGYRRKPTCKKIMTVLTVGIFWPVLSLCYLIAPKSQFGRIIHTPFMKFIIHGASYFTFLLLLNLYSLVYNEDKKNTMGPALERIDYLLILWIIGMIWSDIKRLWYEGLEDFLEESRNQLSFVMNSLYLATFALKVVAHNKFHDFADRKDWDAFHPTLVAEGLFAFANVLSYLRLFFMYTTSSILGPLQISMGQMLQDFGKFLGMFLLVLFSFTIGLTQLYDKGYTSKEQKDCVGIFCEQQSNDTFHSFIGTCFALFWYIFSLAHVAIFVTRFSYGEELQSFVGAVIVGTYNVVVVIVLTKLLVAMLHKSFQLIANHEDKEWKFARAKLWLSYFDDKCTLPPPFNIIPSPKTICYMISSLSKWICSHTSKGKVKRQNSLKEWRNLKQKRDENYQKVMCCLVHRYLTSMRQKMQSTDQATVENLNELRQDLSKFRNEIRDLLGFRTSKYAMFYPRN

## c1ccc(Cn2c(NCc3ccco3)nc3ccccc32)cc1 [AC1903]
[1]; HEK T-REx
  IC50: 4700 nM
[1]
  Hill slope: -1.3
[2]
  IC50: 600 nM
